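Five concentrations, 48 hours, 96-well plates. At the TGI there is no net growth.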
Key:
Test in all cases: DTP human tumour cell line panel, 48 h
786-0 renal = tested on: 786-0 renal
A549 NSCLC = tested on: A549 NSCLC
ACHN renal = tested on: ACHN renal
BT-549 breast = tested on: BT-549 breast
CAKI-1 renal = tested on: CAKI-1 renal
CCRF-CEM leukemia = tested on: CCRF-CEM leukemia
COLO 205 colon = tested on: COLO 205 colon
DU-145 prostate = tested on: DU-145 prostate
EKVX NSCLC = tested on: EKVX NSCLC
HCC-2998 colon = tested on: HCC-2998 colon
HCT-116 colon = tested on: HCT-116 colon
HCT-15 colon = tested on: HCT-15 colon
HL-60(TB) leukemia = tested on: HL-60(TB) leukemia
HOP-62 NSCLC = tested on: HOP-62 NSCLC
HOP-92 NSCLC = tested on: HOP-92 NSCLC
HS 578T breast = tested on: HS 578T breast
HT29 colon = tested on: HT29 colon
IGROV1 ovarian = tested on: IGROV1 ovarian
K-562 leukemia = tested on: K-562 leukemia
KM12 colon = tested on: KM12 colon
LOX IMVI melanoma = tested on: LOX IMVI melanoma
M14 melanoma = tested on: M14 melanoma
MCF7 breast = tested on: MCF7 breast
MDA-MB-231 breast = tested on: MDA-MB-231 breast
MDA-MB-435 = tested on: MDA-MB-435
MDA-N = tested on: MDA-N
MOLT-4 leukemia = tested on: MOLT-4 leukemia
NCI-H23 lung = tested on: NCI-H23 lung
NCI-H460 lung = tested on: NCI-H460 lung
NCI-H522 lung = tested on: NCI-H522 lung
NCI/ADR-RES ovarian = tested on: NCI/ADR-RES ovarian
OVCAR-3 ovarian = tested on: OVCAR-3 ovarian
OVCAR-4 ovarian = tested on: OVCAR-4 ovarian
OVCAR-5 ovarian = tested on: OVCAR-5 ovarian
OVCAR-8 ovarian = tested on: OVCAR-8 ovarian
PC-3 prostate = tested on: PC-3 prostate
RPMI-8226 leukemia = tested on: RPMI-8226 leukemia
SF-268 CNS = tested on: SF-268 CNS
SF-295 CNS = tested on: SF-295 CNS
SF-539 CNS = tested on: SF-539 CNS
SK-MEL-2 melanoma = tested on: SK-MEL-2 melanoma
SK-MEL-28 melanoma = tested on: SK-MEL-28 melanoma
SK-MEL-5 melanoma = tested on: SK-MEL-5 melanoma
SN12C renal = tested on: SN12C renal
SNB-19 CNS = tested on: SNB-19 CNS
SNB-75 CNS = tested on: SNB-75 CNS
SR leukemia = tested on: SR leukemia
SW-620 colon = tested on: SW-620 colon
T-47D breast = tested on: T-47D breast
TK-10 renal = tested on: TK-10 renal
U251 CNS = tested on: U251 CNS
UACC-257 melanoma = tested on: UACC-257 melanoma
UACC-62 melanoma = tested on: UACC-62 melanoma
UO-31 renal = tested on: UO-31 renal
A498 renal = tested on: A498 renal
MALME-3M melanoma = tested on: MALME-3M melanoma
NCI-H226 lung = tested on: NCI-H226 lung
RXF 393 renal = tested on: RXF 393 renal
SK-OV-3 ovarian = tested on: SK-OV-3 ovarian

## CS(=O)(=O)CS(=O)CS(=O)CS(=O)CC(NC(=O)CCC(N)C(=O)O)C(=O)O (stereo unspecified)
786-0 renal
  TGI: > 100 µM
A549 NSCLC
  TGI: > 100 µM
ACHN renal
  TGI: > 100 µM
BT-549 breast
  TGI: > 100 µM
CAKI-1 renal
  TGI: > 100 µM
CCRF-CEM leukemia
  TGI: > 100 µM
COLO 205 colon
  TGI: > 100 µM
DU-145 prostate
  TGI: > 100 µM
EKVX NSCLC
  TGI: > 100 µM
HCC-2998 colon
  TGI: > 100 µM
HCT-116 colon
  TGI: > 100 µM
HCT-15 colon
  TGI: > 100 µM
HL-60(TB) leukemia
  TGI: > 100 µM
HOP-62 NSCLC
  TGI: > 100 µM
HOP-92 NSCLC
  TGI: > 100 µM
HS 578T breast
  TGI: > 100 µM
HT29 colon
  TGI: > 100 µM
IGROV1 ovarian
  TGI: > 100 µM
K-562 leukemia
  TGI: > 100 µM
KM12 colon
  TGI: > 100 µM
LOX IMVI melanoma
  TGI: > 100 µM
M14 melanoma
  TGI: > 100 µM
MCF7 breast
  TGI: > 100 µM
MDA-MB-231 breast
  TGI: > 100 µM
MDA-MB-435
  TGI: > 100 µM
MDA-N
  TGI: > 100 µM
MOLT-4 leukemia
  TGI: > 100 µM
NCI-H23 lung
  TGI: > 100 µM
NCI-H460 lung
  TGI: > 100 µM
NCI-H522 lung
  TGI: > 100 µM
NCI/ADR-RES ovarian
  TGI: > 100 µM
OVCAR-3 ovarian
  TGI: > 100 µM
OVCAR-4 ovarian
  TGI: > 100 µM
OVCAR-5 ovarian
  TGI: > 100 µM
OVCAR-8 ovarian
  TGI: > 100 µM
PC-3 prostate
  TGI: > 100 µM
RPMI-8226 leukemia
  TGI: > 100 µM
SF-268 CNS
  TGI: > 100 µM
SF-295 CNS
  TGI: > 100 µM
SF-539 CNS
  TGI: > 100 µM
SK-MEL-2 melanoma
  TGI: > 100 µM
SK-MEL-28 melanoma
  TGI: > 100 µM
SK-MEL-5 melanoma
  TGI: > 100 µM
SN12C renal
  TGI: > 100 µM
SNB-19 CNS
  TGI: > 100 µM
SNB-75 CNS
  TGI: > 100 µM
SR leukemia
  TGI: > 100 µM
SW-620 colon
  TGI: > 100 µM
T-47D breast
  TGI: > 100 µM
TK-10 renal
  TGI: > 100 µM
U251 CNS
  TGI: > 100 µM
UACC-257 melanoma
  TGI: > 100 µM
UACC-62 melanoma
  TGI: > 100 µM
UO-31 renal
  TGI: > 100 µM

## O=[N+]([O-])c1cc(Cl)ccc1S(=O)(=O)c1cc(Cl)cc2c1NCCC2
786-0 renal
  TGI: > 100 µM
A498 renal
  TGI: > 100 µM
A549 NSCLC
  TGI: > 100 µM
ACHN renal
  TGI: > 100 µM
BT-549 breast
  TGI: > 100 µM
CAKI-1 renal
  TGI: > 100 µM
CCRF-CEM leukemia
  TGI: > 100 µM
COLO 205 colon
  TGI: > 100 µM
DU-145 prostate
  TGI: > 100 µM
EKVX NSCLC
  TGI: > 100 µM
HCC-2998 colon
  TGI: > 100 µM
HCT-116 colon
  TGI: > 100 µM
HCT-15 colon
  TGI: > 100 µM
HL-60(TB) leukemia
  TGI: > 100 µM
HOP-62 NSCLC
  TGI: > 100 µM
HOP-92 NSCLC
  TGI: > 100 µM
HS 578T breast
  TGI: > 100 µM
HT29 colon
  TGI: > 100 µM
IGROV1 ovarian
  TGI: > 100 µM
K-562 leukemia
  TGI: > 100 µM
KM12 colon
  TGI: > 100 µM
LOX IMVI melanoma
  TGI: > 100 µM
M14 melanoma
  TGI: > 100 µM
MALME-3M melanoma
  TGI: > 100 µM
MCF7 breast
  TGI: > 100 µM
MDA-MB-231 breast
  TGI: > 100 µM
MDA-MB-435
  TGI: > 100 µM
MDA-N
  TGI: > 100 µM
MOLT-4 leukemia
  TGI: > 100 µM
NCI-H226 lung
  TGI: > 100 µM
NCI-H460 lung
  TGI: > 100 µM
NCI/ADR-RES ovarian
  TGI: > 100 µM
OVCAR-3 ovarian
  TGI: > 100 µM
OVCAR-4 ovarian
  TGI: > 100 µM
OVCAR-5 ovarian
  TGI: > 100 µM
OVCAR-8 ovarian
  TGI: > 100 µM
PC-3 prostate
  TGI: > 100 µM
RPMI-8226 leukemia
  TGI: > 100 µM
RXF 393 renal
  TGI: > 100 µM
SF-268 CNS
  TGI: > 100 µM
SF-295 CNS
  TGI: > 100 µM
SF-539 CNS
  TGI: > 100 µM
SK-MEL-2 melanoma
  TGI: > 100 µM
SK-MEL-28 melanoma
  TGI: > 100 µM
SK-MEL-5 melanoma
  TGI: 43.7 µM
SK-OV-3 ovarian
  TGI: > 100 µM
SN12C renal
  TGI: > 100 µM
SNB-19 CNS
  TGI: > 100 µM
SNB-75 CNS
  TGI: > 100 µM
SR leukemia
  TGI: > 100 µM
SW-620 colon
  TGI: > 100 µM
TK-10 renal
  TGI: > 100 µM
UACC-257 melanoma
  TGI: 64.8 µM
UACC-62 melanoma
  TGI: 85.8 µM
UO-31 renal
  TGI: > 100 µM

## CC(=O)N1C(OCc2ccccc2)CCN1c1ccccc1 (stereo unspecified)
786-0 renal
  TGI: > 10 µM
A549 NSCLC
  TGI: > 10 µM
ACHN renal
  TGI: > 10 µM
BT-549 breast
  TGI: > 10 µM
CAKI-1 renal
  TGI: > 10 µM
CCRF-CEM leukemia
  TGI: > 10 µM
COLO 205 colon
  TGI: > 10 µM
DU-145 prostate
  TGI: > 10 µM
HCT-116 colon
  TGI: > 10 µM
HCT-15 colon
  TGI: > 10 µM
HL-60(TB) leukemia
  TGI: > 10 µM
HOP-62 NSCLC
  TGI: > 10 µM
HOP-92 NSCLC
  TGI: > 10 µM
HS 578T breast
  TGI: > 10 µM
HT29 colon
  TGI: > 10 µM
IGROV1 ovarian
  TGI: > 10 µM
K-562 leukemia
  TGI: > 10 µM
LOX IMVI melanoma
  TGI: > 10 µM
M14 melanoma
  TGI: > 10 µM
MALME-3M melanoma
  TGI: > 10 µM
MDA-MB-231 breast
  TGI: > 10 µM
MDA-MB-435
  TGI: > 10 µM
MDA-N
  TGI: > 10 µM
MOLT-4 leukemia
  TGI: > 10 µM
NCI-H226 lung
  TGI: > 10 µM
NCI-H23 lung
  TGI: > 10 µM
NCI-H460 lung
  TGI: > 10 µM
NCI-H522 lung
  TGI: > 10 µM
NCI/ADR-RES ovarian
  TGI: > 10 µM
OVCAR-3 ovarian
  TGI: > 10 µM
OVCAR-4 ovarian
  TGI: > 10 µM
OVCAR-5 ovarian
  TGI: > 10 µM
OVCAR-8 ovarian
  TGI: > 10 µM
PC-3 prostate
  TGI: > 10 µM
RPMI-8226 leukemia
  TGI: > 10 µM
RXF 393 renal
  TGI: > 10 µM
SF-268 CNS
  TGI: > 10 µM
SF-295 CNS
  TGI: > 10 µM
SF-539 CNS
  TGI: > 10 µM
SK-MEL-2 melanoma
  TGI: > 10 µM
SK-MEL-28 melanoma
  TGI: > 10 µM
SK-MEL-5 melanoma
  TGI: > 10 µM
SK-OV-3 ovarian
  TGI: > 10 µM
SN12C renal
  TGI: > 10 µM
SNB-19 CNS
  TGI: > 10 µM
SNB-75 CNS
  TGI: > 10 µM
SR leukemia
  TGI: > 10 µM
SW-620 colon
  TGI: > 10 µM
T-47D breast
  TGI: > 10 µM
TK-10 renal
  TGI: > 10 µM
UACC-257 melanoma
  TGI: > 10 µM
UO-31 renal
  TGI: > 10 µM

Source: PubChem BioAssay (NCI)
